Laboratory results: patent publication US8501431B2, “Method for screening for compounds selectively interacting with RAD9” (Magnachem International Laboratories, Inc., priority 2008, dated 2013)
“Also recorded” adds a separate entry of the source.

Tested on: mutant strains of Saccharomyces cereviseae (gene rad9)
Assay: Bioassay on solid mediums with Securolide on mutant strains of Saccharomyces cereviseae
Format: cell-based
Settings: concentration between ten and one hundred micrograms/milliliter, set of mutant strains, specifically the gene rad9
Procedure: Bioassays on solid mediums were performed with Securolide (LMSV-6) in a concentration between ten and one hundred micrograms/milliliter on a set of mutant strains of Saccharomyces cereviseae with DNA similar to that in tumor/cancer cells.

C=C1CCOC1=O [Securolide]
cytoxic activity: cell death of Rad9 mutant yeast strains; also recorded: marked cytoxic activity only on the mutant strains
